Measured values taken from ChEMBL document CHEMBL4507292 (2021).

What was measured:
[1] = molecular target: Atypical kinase COQ8B, mitochondrial (Homo sapiens) (UniProt Q96D53); details: Compound concentration 1000.0 nM
[2] = molecular target: Serine/threonine-protein kinase DCLK2 (Homo sapiens) (UniProt Q8N568); details: Compound concentration 1000.0 nM
[3] = molecular target: 5-hydroxytryptamine receptor 2A (Homo sapiens) (UniProt P28223); details: Compound concentration 10.0 uM
[4] = molecular target: Death-associated protein kinase 3 (Homo sapiens) (UniProt O43293); details: Compound concentration 1000.0 nM
[5] = test system: Tyrosine-protein kinase ABL1 (Homo sapiens), P00519 [T315I]; details: Compound concentration 1000.0 nM
[6] = molecular target: Serine/threonine-protein kinase 32C (Homo sapiens) (UniProt Q86UX6); details: Compound concentration 1000.0 nM
[7] = molecular target: MAP kinase-activated protein kinase 5 (Homo sapiens) (UniProt Q8IW41); details: Compound concentration 1000.0 nM
[8] = molecular target: Fibroblast growth factor receptor 4 (Homo sapiens) (UniProt P22455); details: Compound concentration 1000.0 nM
[9] = molecular target: Testis-specific serine/threonine-protein kinase 3 (Homo sapiens) (UniProt Q96PN8); details: Compound concentration 1000.0 nM
[10] = molecular target: Ephrin type-B receptor 1 (Homo sapiens) (UniProt P54762); details: Compound concentration 1000.0 nM
[11] = molecular target: 5'-AMP-activated protein kinase catalytic subunit alpha-2 (Homo sapiens) (UniProt P54646); details: Compound concentration 1000.0 nM
[12] = molecular target: Casein kinase I isoform alpha-like (Homo sapiens) (UniProt Q8N752); details: Compound concentration 1000.0 nM
[13] = molecular target: T1, 5-hydroxytryptamine receptor 1A (Homo sapiens) (UniProt P08908); details: Compound concentration 10.0 uM
T1 sequence (whole entry): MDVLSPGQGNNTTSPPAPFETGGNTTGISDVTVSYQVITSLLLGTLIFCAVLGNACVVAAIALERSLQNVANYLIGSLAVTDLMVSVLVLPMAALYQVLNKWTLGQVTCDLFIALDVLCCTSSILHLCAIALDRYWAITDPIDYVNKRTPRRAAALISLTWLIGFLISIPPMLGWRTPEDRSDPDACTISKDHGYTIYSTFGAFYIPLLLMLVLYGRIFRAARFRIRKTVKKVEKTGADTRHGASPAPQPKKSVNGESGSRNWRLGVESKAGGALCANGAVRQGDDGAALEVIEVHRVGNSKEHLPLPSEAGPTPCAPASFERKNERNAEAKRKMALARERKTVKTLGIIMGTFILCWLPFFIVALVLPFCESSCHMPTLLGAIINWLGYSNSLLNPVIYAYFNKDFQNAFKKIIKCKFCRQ

[14] = molecular target: Serine/threonine-protein kinase mTOR (Homo sapiens) (UniProt P42345); details: Compound concentration 1000.0 nM
[15] = test system: Tyrosine-protein kinase ABL1 (Homo sapiens), P00519 [Q252H]; details: Compound concentration 1000.0 nM
[16] = molecular target: Beta-3 adrenergic receptor (Homo sapiens, UniProt P13945); experiment: GPCRScan assay: inhibition of Beta3; set-up: radioligand conc. used [nm] 0.2 – 0.5, parental cells HEK Flp-In
[17] = molecular target: Ribosomal protein S6 kinase alpha-2 (Homo sapiens) (UniProt Q15349); details: Compound concentration 1000.0 nM
[18] = molecular target: Serine/threonine-protein kinase PAK 2 (Homo sapiens) (UniProt Q13177); details: Compound concentration 1000.0 nM
[19] = molecular target: TRAF2 and NCK-interacting protein kinase (Homo sapiens) (UniProt Q9UKE5); details: Compound concentration 1000.0 nM
[20] = molecular target: Alpha-1A adrenergic receptor (Homo sapiens) (UniProt P35348); details: Compound concentration 10.0 uM
[21] = molecular target: Casein kinase II subunit alpha' (Homo sapiens) (UniProt P19784); details: Compound concentration 1000.0 nM
[22] = molecular target: Homeodomain-interacting protein kinase 3 (Homo sapiens) (UniProt Q9H422); details: Compound concentration 1000.0 nM
[23] = molecular target: Histamine H4 receptor (Homo sapiens) (UniProt Q9H3N8); details: Compound concentration 10.0 uM
[24] = molecular target: Mitogen-activated protein kinase kinase kinase kinase 4 (Homo sapiens) (UniProt O95819); details: Compound concentration 1000.0 nM
[25] = molecular target: Cyclin-dependent kinase 19 (Homo sapiens) (UniProt Q9BWU1); details: Compound concentration 1000.0 nM
[26] = molecular target: Mitogen-activated protein kinase 4 (Homo sapiens) (UniProt P31152); details: Compound concentration 1000.0 nM
[27] = molecular target: Tyrosine-protein kinase ABL1 (Homo sapiens) (UniProt P00519); details: Compound concentration 1000.0 nM
[28] = molecular target: Ribosomal protein S6 kinase alpha-4 (Homo sapiens) (UniProt O75676); details: Compound concentration 1000.0 nM
[29] = molecular target: Tyrosine-protein kinase FRK (Homo sapiens) (UniProt P42685); details: Compound concentration 1000.0 nM
D(1A) dopamine receptor = D(1A) dopamine receptor (Homo sapiens, UniProt P21728); details: Compound concentration 10.0 uM
[30] = molecular target: Serine/threonine-protein kinase Nek9 (Homo sapiens) (UniProt Q8TD19); details: Compound concentration 1000.0 nM
[31] = molecular target: 5-hydroxytryptamine receptor 1D (Homo sapiens) (UniProt P28221); details: Compound concentration 10.0 uM
[32] = molecular target: cGMP-dependent protein kinase 2 (Homo sapiens) (UniProt Q13237); details: Compound concentration 1000.0 nM
[33] = molecular target: Tyrosine-protein kinase Lck (Homo sapiens) (UniProt P06239); details: Compound concentration 1000.0 nM
[34] = molecular target: Mitogen-activated protein kinase 13 (Homo sapiens) (UniProt O15264); details: Compound concentration 1000.0 nM
[35] = molecular target: Beta-2 adrenergic receptor (Homo sapiens) (UniProt P07550); details: Compound concentration 10.0 uM
[36] = molecular target: 5-hydroxytryptamine receptor 6 (Homo sapiens) (UniProt P50406); details: Compound concentration 10.0 uM
[37] = molecular target: Tyrosine-protein kinase HCK (Homo sapiens) (UniProt P08631); details: Compound concentration 1000.0 nM
[38] = molecular target: Protein-tyrosine kinase 2-beta (Homo sapiens) (UniProt Q14289); details: Compound concentration 1000.0 nM
[39] = molecular target: Rhodopsin kinase GRK7 (Homo sapiens) (UniProt Q8WTQ7); details: Compound concentration 1000.0 nM
Chain of Rhodopsin kinase GRK7 (Homo sapiens) (Q8WTQ7 whole entry): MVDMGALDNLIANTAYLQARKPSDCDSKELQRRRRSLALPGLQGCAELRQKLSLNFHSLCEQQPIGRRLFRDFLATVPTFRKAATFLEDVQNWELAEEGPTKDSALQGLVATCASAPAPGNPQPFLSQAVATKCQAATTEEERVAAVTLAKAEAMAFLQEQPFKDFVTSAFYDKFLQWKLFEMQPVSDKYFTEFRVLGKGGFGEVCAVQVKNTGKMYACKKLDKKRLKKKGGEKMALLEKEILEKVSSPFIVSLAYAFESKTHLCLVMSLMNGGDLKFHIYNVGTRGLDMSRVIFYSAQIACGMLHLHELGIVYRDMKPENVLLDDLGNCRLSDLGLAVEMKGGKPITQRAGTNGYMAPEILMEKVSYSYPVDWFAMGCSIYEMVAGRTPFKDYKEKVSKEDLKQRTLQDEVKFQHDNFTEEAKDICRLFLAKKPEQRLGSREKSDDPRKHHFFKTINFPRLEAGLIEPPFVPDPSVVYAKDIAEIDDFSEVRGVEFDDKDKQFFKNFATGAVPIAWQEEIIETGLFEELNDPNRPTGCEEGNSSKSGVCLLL

Chain of Serine/threonine-protein kinase Nek9 (Homo sapiens) (Q8TD19 whole entry): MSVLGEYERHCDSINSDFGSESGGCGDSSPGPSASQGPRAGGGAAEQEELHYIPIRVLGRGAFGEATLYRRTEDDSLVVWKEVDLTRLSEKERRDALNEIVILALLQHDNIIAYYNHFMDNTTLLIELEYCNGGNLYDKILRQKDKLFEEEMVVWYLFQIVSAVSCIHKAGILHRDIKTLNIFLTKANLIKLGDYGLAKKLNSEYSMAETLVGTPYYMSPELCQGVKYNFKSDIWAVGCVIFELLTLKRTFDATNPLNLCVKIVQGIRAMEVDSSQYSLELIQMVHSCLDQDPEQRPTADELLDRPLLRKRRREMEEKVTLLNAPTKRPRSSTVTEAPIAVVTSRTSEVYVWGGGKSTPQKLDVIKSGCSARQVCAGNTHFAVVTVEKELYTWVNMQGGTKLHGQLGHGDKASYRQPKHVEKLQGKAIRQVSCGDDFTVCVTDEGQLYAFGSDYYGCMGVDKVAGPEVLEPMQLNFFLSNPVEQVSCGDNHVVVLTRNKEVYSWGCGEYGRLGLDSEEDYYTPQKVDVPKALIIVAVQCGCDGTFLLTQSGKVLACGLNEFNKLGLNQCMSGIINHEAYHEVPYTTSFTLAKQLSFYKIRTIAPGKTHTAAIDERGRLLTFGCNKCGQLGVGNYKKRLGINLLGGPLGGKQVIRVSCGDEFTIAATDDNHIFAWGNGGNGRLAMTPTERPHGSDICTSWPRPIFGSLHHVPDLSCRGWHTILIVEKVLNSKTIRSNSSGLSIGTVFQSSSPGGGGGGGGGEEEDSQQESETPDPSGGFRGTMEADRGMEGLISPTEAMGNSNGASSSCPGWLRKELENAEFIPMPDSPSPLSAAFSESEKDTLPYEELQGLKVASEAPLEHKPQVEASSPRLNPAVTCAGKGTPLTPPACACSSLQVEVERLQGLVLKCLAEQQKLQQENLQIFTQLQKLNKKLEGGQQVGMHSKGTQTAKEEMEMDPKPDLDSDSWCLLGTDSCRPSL
Chain of D(1A) dopamine receptor (P21728 whole entry): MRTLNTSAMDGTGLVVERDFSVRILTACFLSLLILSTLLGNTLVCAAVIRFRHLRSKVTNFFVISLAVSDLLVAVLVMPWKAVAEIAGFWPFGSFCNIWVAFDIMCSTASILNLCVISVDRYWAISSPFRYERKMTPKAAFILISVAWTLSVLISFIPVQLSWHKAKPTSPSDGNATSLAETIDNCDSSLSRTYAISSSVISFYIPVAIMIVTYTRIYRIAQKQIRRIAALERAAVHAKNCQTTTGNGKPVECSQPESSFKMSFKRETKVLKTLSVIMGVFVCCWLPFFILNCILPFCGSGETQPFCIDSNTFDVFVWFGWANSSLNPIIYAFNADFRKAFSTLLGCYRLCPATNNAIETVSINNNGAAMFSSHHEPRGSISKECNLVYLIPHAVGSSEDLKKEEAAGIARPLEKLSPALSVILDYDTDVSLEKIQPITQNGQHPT
Chain of TRAF2 and NCK-interacting protein kinase (Homo sapiens) (Q9UKE5 whole entry, looked up): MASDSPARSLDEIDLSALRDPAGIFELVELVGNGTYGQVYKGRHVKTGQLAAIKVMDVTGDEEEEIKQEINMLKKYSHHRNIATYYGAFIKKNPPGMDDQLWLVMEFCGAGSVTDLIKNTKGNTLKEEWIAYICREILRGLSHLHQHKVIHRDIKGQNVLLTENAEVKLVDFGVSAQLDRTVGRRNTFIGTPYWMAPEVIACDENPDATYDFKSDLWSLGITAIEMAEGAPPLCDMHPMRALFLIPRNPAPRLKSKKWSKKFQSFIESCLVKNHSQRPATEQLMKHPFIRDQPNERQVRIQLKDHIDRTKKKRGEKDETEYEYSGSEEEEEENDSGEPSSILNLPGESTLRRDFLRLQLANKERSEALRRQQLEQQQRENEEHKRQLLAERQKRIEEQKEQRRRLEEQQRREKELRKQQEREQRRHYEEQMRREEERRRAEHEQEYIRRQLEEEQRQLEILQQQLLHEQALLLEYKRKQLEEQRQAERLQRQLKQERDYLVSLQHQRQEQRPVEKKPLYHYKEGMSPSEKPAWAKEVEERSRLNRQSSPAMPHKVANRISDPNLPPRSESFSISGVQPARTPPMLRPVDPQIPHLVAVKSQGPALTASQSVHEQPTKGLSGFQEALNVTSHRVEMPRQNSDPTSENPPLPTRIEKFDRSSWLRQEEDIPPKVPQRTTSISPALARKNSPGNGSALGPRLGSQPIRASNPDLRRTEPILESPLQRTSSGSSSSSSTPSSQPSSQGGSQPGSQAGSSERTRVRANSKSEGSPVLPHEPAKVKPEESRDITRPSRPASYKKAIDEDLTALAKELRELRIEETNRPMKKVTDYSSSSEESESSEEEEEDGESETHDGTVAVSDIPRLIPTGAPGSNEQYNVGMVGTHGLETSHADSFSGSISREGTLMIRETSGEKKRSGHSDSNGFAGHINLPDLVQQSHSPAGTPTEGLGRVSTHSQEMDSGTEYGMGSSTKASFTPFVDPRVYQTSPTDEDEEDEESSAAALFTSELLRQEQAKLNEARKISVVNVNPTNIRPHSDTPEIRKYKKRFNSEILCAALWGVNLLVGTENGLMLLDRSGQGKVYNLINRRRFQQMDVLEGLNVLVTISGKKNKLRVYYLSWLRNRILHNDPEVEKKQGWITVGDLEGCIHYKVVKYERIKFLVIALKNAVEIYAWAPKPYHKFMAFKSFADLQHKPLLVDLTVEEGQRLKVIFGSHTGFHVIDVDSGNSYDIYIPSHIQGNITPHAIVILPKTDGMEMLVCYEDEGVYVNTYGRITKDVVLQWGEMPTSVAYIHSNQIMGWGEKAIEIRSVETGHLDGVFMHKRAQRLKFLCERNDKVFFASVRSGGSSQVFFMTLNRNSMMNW
Chain of Death-associated protein kinase 3 (Homo sapiens) (O43293 whole entry, looked up): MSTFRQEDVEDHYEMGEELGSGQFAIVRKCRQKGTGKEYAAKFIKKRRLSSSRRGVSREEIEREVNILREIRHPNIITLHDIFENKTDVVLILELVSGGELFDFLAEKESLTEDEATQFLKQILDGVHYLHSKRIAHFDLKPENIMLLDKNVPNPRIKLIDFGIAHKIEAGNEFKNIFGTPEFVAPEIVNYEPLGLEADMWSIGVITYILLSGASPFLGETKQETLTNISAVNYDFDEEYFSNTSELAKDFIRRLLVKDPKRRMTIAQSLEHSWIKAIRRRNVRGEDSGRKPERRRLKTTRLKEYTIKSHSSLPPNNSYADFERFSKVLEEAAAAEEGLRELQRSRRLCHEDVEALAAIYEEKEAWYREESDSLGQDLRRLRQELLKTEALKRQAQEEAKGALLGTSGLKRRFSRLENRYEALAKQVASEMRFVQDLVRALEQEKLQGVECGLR
Chain of Beta-2 adrenergic receptor (Homo sapiens) (P07550 whole entry, looked up): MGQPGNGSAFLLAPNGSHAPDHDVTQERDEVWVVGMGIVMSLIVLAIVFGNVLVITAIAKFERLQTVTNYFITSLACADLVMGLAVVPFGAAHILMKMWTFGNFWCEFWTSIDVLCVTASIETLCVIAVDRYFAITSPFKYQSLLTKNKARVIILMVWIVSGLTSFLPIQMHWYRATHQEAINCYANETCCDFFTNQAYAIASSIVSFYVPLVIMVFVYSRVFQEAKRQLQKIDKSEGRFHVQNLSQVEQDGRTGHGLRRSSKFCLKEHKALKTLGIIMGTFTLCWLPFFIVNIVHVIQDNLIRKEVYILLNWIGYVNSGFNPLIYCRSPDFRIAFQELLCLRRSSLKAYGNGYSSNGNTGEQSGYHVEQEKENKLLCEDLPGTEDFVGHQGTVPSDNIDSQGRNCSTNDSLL
Chain of Ribosomal protein S6 kinase alpha-4 (Homo sapiens) (O75676 whole entry, looked up): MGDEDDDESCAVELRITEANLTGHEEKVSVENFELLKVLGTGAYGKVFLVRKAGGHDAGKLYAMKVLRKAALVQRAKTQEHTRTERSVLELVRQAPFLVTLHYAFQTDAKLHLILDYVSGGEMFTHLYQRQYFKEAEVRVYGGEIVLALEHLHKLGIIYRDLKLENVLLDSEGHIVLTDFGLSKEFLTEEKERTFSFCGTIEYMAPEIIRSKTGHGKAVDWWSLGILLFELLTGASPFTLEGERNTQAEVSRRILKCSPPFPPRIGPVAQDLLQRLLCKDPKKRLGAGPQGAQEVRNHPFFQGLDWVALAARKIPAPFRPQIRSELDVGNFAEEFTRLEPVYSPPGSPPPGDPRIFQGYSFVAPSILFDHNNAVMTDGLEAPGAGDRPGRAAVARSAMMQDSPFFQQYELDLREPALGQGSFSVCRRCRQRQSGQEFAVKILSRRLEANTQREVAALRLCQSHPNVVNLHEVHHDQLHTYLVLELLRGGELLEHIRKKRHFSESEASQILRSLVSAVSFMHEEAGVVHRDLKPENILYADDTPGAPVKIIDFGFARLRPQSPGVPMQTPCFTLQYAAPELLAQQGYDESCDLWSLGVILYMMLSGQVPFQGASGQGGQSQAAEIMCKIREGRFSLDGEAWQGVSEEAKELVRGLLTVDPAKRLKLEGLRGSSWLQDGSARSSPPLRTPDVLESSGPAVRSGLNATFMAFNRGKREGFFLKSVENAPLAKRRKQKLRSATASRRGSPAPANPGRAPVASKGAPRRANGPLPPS

SMILES | residual activity [1] | residual activity [2] | inhibition [3] | residual activity [4] | residual activity [5] | residual activity [6] | residual activity [7] | residual activity [8] | residual activity [9] | residual activity [10] | residual activity [11] | residual activity [12] | inhibition [13] | residual activity [14] | residual activity [15] | Ki [16] | residual activity [17] | residual activity [18] | residual activity [19] | inhibition [20] | also measured
O=C(O)c1cc(-c2ccc(C3CCNCC3)cc2)c2ccc(-c3ccc(C(F)(F)F)cc3)cc2c1 [PPTN] | 100% | 100% | 29.1% | 100% | 74% | 100% | 100% | 100% | 100% | 100% | 100% | 100% | 11.2% | 90% | 100% | 2.92 µM | 100% | 100% | 100% | 46.7% | residual activity [21]: 100%; residual activity [22]: 100%; inhibition [23]: -6.7%; residual activity [24]: 87%; residual activity [25]: 97%; residual activity [26]: 100%; residual activity [27]: 72%; residual activity [28]: 100%; residual activity [29]: 100%; inhibition (D(1A) dopamine receptor): 71.4%; residual activity [30]: 100%; inhibition [31]: 33.6%; residual activity [32]: 79%; residual activity [33]: 100%; residual activity [34]: 97%; inhibition [35]: 38.9%; inhibition [36]: 5.62%; residual activity [37]: 100%; residual activity [38]: 100%; residual activity [39]: 85%
Cc1c(C(=O)O)cc(-c2ccc(C3CCNCC3)cc2)c2ccc(-c3ccc(C(F)(F)F)cc3)cc12 [PPTN-NC] | 100% | 100% | 23.4% | 100% | 82% | 100% | 100% | 100% | 93% | 100% | 100% | 100% | 1.01% | 96% | 85% | 3.26 µM | 100% | 100% | 100% | 25.4% | residual activity [21]: 100%; residual activity [22]: 100%; inhibition [23]: -4.71%; residual activity [24]: 76%; residual activity [25]: 100%; residual activity [26]: 100%; residual activity [27]: 85%; residual activity [28]: 100%; residual activity [29]: 100%; inhibition (D(1A) dopamine receptor): 61.4%; residual activity [30]: 100%; inhibition [31]: 30.1%; residual activity [32]: 71%; residual activity [33]: 100%; residual activity [34]: 96%; inhibition [35]: 27.8%; inhibition [36]: 13.5%; residual activity [37]: 100%; residual activity [38]: 100%; residual activity [39]: 91%
